Data from ChEMBL document CHEMBL5325395, “Design, synthesis and anti-ovarian cancer activities of thieno[2,3-d]pyrimidine based chimeric BRD4 inhibitor/nitric oxide-donator” (Eur J Med Chem, 2023).
The source made the active and inactive calls. The rule behind the calls is not given here.

How the values were obtained:
[1] = Induction of NO release in phosphate buffer at 6 hrs by Griess reagent based spectrophotometer analysis; format: functional
[2] = molecular target: T1, Bromodomain-containing protein 4 (Homo sapiens, UniProt O60885); experiment: Inhibition of BRD4 bromodomain 1 (unknown origin) by Alphascreen based method
[3] = molecular target: T2, Bromodomain-containing protein 2 (Homo sapiens, UniProt P25440); experiment: Inhibition of BRD2 bromodomain 1 (unknown origin) by Alphascreen based method
T2 sequence (P25440 whole entry): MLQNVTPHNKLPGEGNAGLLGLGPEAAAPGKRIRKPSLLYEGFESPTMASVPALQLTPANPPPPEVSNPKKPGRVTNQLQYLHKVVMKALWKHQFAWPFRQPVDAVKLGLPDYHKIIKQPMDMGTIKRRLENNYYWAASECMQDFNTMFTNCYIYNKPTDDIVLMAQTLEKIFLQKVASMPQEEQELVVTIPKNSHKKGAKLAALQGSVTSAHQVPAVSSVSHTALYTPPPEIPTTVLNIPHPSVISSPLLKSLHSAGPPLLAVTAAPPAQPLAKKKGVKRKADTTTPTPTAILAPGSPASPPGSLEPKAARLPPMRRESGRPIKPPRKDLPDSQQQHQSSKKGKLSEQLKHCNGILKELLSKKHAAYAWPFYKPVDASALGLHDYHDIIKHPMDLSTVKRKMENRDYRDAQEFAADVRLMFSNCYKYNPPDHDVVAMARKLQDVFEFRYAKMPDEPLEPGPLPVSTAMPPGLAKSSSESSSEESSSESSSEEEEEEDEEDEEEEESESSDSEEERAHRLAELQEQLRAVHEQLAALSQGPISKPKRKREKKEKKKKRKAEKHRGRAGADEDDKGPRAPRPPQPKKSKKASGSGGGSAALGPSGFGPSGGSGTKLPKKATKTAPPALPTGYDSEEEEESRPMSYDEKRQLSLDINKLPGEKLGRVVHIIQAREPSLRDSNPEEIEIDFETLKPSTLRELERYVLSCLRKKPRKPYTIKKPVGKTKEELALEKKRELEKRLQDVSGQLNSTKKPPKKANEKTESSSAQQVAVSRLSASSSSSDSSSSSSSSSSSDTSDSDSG

SK-OV-3 [4] = experiment: Induction of apoptosis in human SK-OV-3 cells assessed as downregulation of Bcl-2 protein expression at 1 to 2 uM incubated for 24 hrs by Western blotting analysis; format: functional, cell-based; conditions: dose 1-2 µM
[5] = Toxicity in BALB/c mouse xenografted with human SK-OV-3 cells assessed as change in body weight at 30 mg/kg, ip administered for 19 days; format: organism-based; conditions: in vivo, 456 h, time 19 day
[6] = molecular target: Bromodomain testis-specific protein (Homo sapiens, UniProt Q58F21); experiment: Inhibition of BRDT bromodomain 1 (unknown origin) by Alphascreen based method
SK-OV-3 [7] = experiment: Induction of apoptosis in human SK-OV-3 cells assessed as upregulation of p62/SQSTM1 protein expression at 1 to 2 uM incubated for 24 hrs by Western blotting analysis; format: functional, cell-based; conditions: dose 1-2 µM
SK-OV-3 [8] = experiment: Induction of autophagy in human SK-OV-3 cells assessed as reduction in GFP-LC3 labeled lysosomes at 2 umol/L incubated for 24 hrs by immunofluorescence analysis; format: functional, cell-based; conditions: dose 2.0 µmol/L
[9] = Induction of NO release in phosphate buffer at 24 hrs by Griess reagent based spectrophotometer analysis; format: functional
[10] = molecular target: T1, Bromodomain-containing protein 4; experiment: Inhibition of BRD4 (unknown origin)
SK-OV-3 [11] = experiment: Induction of apoptosis in human SK-OV-3 cells assessed as upregulation of cytochrome-C protein expression at 1 to 2 uM incubated for 24 hrs by Western blotting analysis; format: functional, cell-based; conditions: dose 1-2 µM
SK-OV-3 [12] = experiment: Induction of autophagy in human SK-OV-3 cells assessed as appearance of autophagic vacuoles incubated for 24 hrs by transmission electron microscopy analysis; format: functional, cell-based
SK-OV-3 [13] = experiment: Induction of apoptosis in human SK-OV-3 cells assessed as necrotic cells at 1 uM incubated for 24 hrs by Annexin V and PI staining based flow cytometry analysis (reference value: 0.15 %); format: functional
Mus musculus = experiment: In vivo inhibition of BRD4 in BALB/c nude mouse xenografted with human SK-OV-3 cells assessed as reduction in c-Myc expression at 30 mg/kg, ip administered for 19 days by immunohistochemical analysis; format: functional, organism-based; conditions: time 19.0 day
SK-OV-3 [14] = experiment: Induction of apoptosis in human SK-OV-3 cells assessed as upregulation of cleaved caspase 3 protein expression at 1 to 2 uM incubated for 24 hrs by Western blotting analysis; format: functional, cell-based; conditions: dose 1-2 µM
SK-OV-3 [15] = experiment: Induction of autophagy in human SK-OV-3 cells assessed as reduction in LAMP1 labeled lysosomes at 2 umol/L incubated for 24 hrs by immunofluorescence analysis; format: functional, cell-based; conditions: dose 2.0 µmol/L
SK-OV-3 [16] = experiment: Induction of apoptosis in human SK-OV-3 cells assessed as necrotic cells at 2 uM incubated for 24 hrs by Annexin V and PI staining based flow cytometry analysis (reference value: 0.15 %); format: functional
SK-OV-3 [17] = experiment: Induction of autophagy in human SK-OV-3 cells assessed as appearance of autophagic vacuoles incubated for 24 hrs by confocal fluorescence microscopy analysis; format: functional, cell-based
SK-OV-3 [18] = experiment: Induction of apoptosis in human SK-OV-3 cells assessed as viable cells at 1 uM incubated for 24 hrs by Annexin V and PI staining based flow cytometry analysis (reference value: 99.8 %); format: functional; conditions: read-out: Activity
[19] = Induction of NO release in phosphate buffer at 0.5 hrs by Griess reagent based spectrophotometer analysis; format: functional
SK-OV-3 [20] = experiment: Antiproliferative activity against human SK-OV-3 cells assessed as reduction in cell viability incubated for 24 hrs by CCK8 assay; format: functional, cell-based; conditions: SK-OV-3, 24 h
[21] = molecular target: T3, Bromodomain-containing protein 3 (Homo sapiens, UniProt Q15059); experiment: Inhibition of BRD3 bromodomain 1 (unknown origin) by Alphascreen based method
T3 sequence (Q15059 whole entry): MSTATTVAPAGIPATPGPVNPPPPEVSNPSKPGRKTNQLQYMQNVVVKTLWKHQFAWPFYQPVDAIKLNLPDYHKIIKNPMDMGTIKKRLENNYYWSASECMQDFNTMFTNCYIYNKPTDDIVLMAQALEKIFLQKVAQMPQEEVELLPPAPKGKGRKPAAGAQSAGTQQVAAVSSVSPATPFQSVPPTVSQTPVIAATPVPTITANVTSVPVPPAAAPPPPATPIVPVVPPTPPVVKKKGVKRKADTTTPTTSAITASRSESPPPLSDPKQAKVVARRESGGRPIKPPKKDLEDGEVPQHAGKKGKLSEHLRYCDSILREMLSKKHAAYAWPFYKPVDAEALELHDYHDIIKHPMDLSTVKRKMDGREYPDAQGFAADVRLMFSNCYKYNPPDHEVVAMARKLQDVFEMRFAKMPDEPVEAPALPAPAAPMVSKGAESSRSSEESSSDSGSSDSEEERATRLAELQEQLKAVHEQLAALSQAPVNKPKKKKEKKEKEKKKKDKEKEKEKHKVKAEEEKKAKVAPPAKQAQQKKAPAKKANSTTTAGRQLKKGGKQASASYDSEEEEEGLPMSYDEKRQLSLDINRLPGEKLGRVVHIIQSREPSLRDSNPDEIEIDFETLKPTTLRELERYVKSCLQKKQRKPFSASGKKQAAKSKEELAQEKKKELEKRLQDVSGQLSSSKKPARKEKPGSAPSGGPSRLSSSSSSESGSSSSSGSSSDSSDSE

SK-OV-3 [22] = experiment: Induction of apoptosis in human SK-OV-3 cells assessed as upregulation of LC3II/I protein expression at 1 to 2 uM incubated for 24 hrs by Western blotting analysis; format: functional, cell-based; conditions: dose 1-2 µM
SK-OV-3 [23] = experiment: Antitumor activity against human SK-OV-3 cells xenografted in BALB/c nude mouse assessed as reduction in Ki-67 expression at 30 mg/kg, ip administered for 19 days by immunohistochemical analysis; format: functional, organism-based; conditions: time 19.0 day
SK-OV-3 [24] = experiment: Antitumor activity against human SK-OV-3 cells xenografted in BALB/c nude mouse assessed as increase in tumor cell apoptosis at 30 mg/kg, ip administered for 19 days by TUNEL staining based analysis; format: functional, organism-based; conditions: time 19.0 day
[25] = Induction of NO release in phosphate buffer at 1 hr by Griess reagent based spectrophotometer analysis; format: functional
SK-OV-3 [26] = experiment: Induction of apoptosis in human SK-OV-3 cells assessed as viable cells at 2 uM incubated for 24 hrs by Annexin V and PI staining based flow cytometry analysis (reference value: 99.8 %); format: functional; conditions: read-out: Activity
[27] = molecular target: T3, Bromodomain-containing protein 3; experiment: Inhibition of BRD3 bromodomain 2 (unknown origin) by Alphascreen based method
[28] = molecular target: T1, Bromodomain-containing protein 4; experiment: Inhibition of BRD4 in human SK-OV-3 cells assessed as reduction in c-Myc protein expression by Western blot analysis; format: cell-based
[29] = molecular target: T2, Bromodomain-containing protein 2; experiment: Binding affinity to BRD2 BD1 (unknown origin) by thermal denaturation assay
[30] = molecular target: T1, Bromodomain-containing protein 4; experiment: Binding affinity to BRD4 BD2 (unknown origin) by thermal denaturation assay
SK-OV-3 [31] = experiment: Induction of autophagy in human SK-OV-3 cells assessed as increase in autophagosomes at 2 umol/L incubated for 24 hrs by immunofluorescence analysis; format: functional, cell-based; conditions: dose 2.0 µmol/L
ES-2 = experiment: Antiproliferative activity against human ES2 cells assessed as reduction in cell viability incubated for 24 hrs by CCK8 assay; format: functional, cell-based; conditions: ES-2, 24 h
A2780 = experiment: Antiproliferative activity against human A2780 cells assessed as reduction in cell viability incubated for 24 hrs by CCK8 assay; format: functional, cell-based; conditions: A2780, 24 h
OVCAR-3 = experiment: Antiproliferative activity against human OVCAR-3 cells assessed as reduction in cell viability incubated for 24 hrs by CCK8 assay; format: functional, cell-based; conditions: OVCAR-3, 24 h
SK-OV-3 [32] = experiment: Induction of apoptosis in human SK-OV-3 cells assessed as late apoptotic cells at 1 uM incubated for 24 hrs by Annexin V and PI staining based flow cytometry analysis (reference value: 0 %); format: functional
SK-OV-3 [33] = experiment: Antitumor activity against human SK-OV-3 cells xenografted in Balb/c nude mouse assessed as tumor growth inhibition at 30 mg/kg, ip administered for 19 days; format: functional, organism-based; conditions: time 19.0 day
[34] = Induction of NO release in phosphate buffer at 4 hrs by Griess reagent based spectrophotometer analysis; format: functional
[35] = molecular target: T2, Bromodomain-containing protein 2; experiment: Binding affinity to BRD2 BD2 (unknown origin) by thermal denaturation assay
SK-OV-3 [36] = experiment: Induction of apoptosis in human SK-OV-3 cells assessed as late apoptotic cells at 2 uM incubated for 24 hrs by Annexin V and PI staining based flow cytometry analysis (reference value: 0 %); format: functional
[37] = molecular target: T1, Bromodomain-containing protein 4; experiment: Inhibition of BRD4 bromodomain 2 (unknown origin) by Alphascreen based method
[38] = molecular target: T1, Bromodomain-containing protein 4; experiment: Binding affinity to BRD4 BD1 (unknown origin) by thermal denaturation assay
SK-OV-3 [39] = experiment: Induction of autophagy in human SK-OV-3 cells assessed as GFP-LC3 aggregation incubated for 24 hrs by confocal fluorescence microscopy analysis; format: functional, cell-based
SK-OV-3 [40] = experiment: Induction of apoptosis in human SK-OV-3 cells assessed as upregulation of Beclin1 protein expression at 1 to 2 uM incubated for 24 hrs by Western blotting analysis; format: functional, cell-based; conditions: dose 1-2 µM
SK-OV-3 [41] = experiment: Induction of autophagy in human SK-OV-3 cells assessed as GFP-LC3 aggregation incubated for 24 hrs by transmission electron microscopy analysis; format: functional, cell-based
SK-OV-3 [42] = experiment: Induction of apoptosis in human SK-OV-3 cells assessed as early apoptotic cells at 1 uM incubated for 24 hrs by Annexin V and PI staining based flow cytometry analysis (reference value: 0.020 %); format: functional
[43] = molecular target: T1, Bromodomain-containing protein 4; experiment: Inhibition of BRD4 in human SK-OV-3 cells assessed as reduction in BRD4 protein expression by Western blot analysis; format: cell-based
SW626 = experiment: Antiproliferative activity against human SW626 cells assessed as reduction in cell viability incubated for 24 hrs by CCK8 assay; format: functional, cell-based; conditions: SW626, 24 h
[44] = molecular target: T2, Bromodomain-containing protein 2; experiment: Inhibition of BRD2 bromodomain 2 (unknown origin) by Alphascreen based method
[45] = Induction of NO release in phosphate buffer at 2 hrs by Griess reagent based spectrophotometer analysis; format: functional
[46] = Induction of NO release in phosphate buffer at 3 hrs by Griess reagent based spectrophotometer analysis; format: functional
SK-OV-3 [47] = experiment: Induction of apoptosis in human SK-OV-3 cells assessed as early apoptotic cells at 2 uM incubated for 24 hrs by Annexin V and PI staining based flow cytometry analysis (reference value: 0.020 %); format: functional

Cc1cc(-c2nc3sc4c(c3c(=O)[nH]2)CCN(C)C4)cc(C)c1OCC(=O)OCc1c(-c2ccccc2)no[n+]1[O-]
Activity [1]: 0.111 µmol/L
IC50 [2]: 0.82 µM
IC50 [3]: 15.9 µM
Activity (SK-OV-3 [4]): Active
Activity [5]: Non-Toxic
IC50 [6]: > 20 µM
Activity (SK-OV-3 [7]): Active
Activity (SK-OV-3 [8]): Active
Activity [9]: 0.258 µmol/L
IC50 [10]: 0.82 µM
Activity (SK-OV-3 [11]): Active
Activity (SK-OV-3 [12]): Active
Activity (SK-OV-3 [13]): 1.2%
inhibition (Mus musculus): Active
Activity (SK-OV-3 [14]): Active
Activity (SK-OV-3 [15]): Active
Activity (SK-OV-3 [16]): 1.03%
Activity (SK-OV-3 [17]): Active
viability at 1 µM (SK-OV-3 [18]): 88.9%
Activity [19]: 0.061 µmol/L
IC50 (SK-OV-3 [20]): 1.38 µM
IC50 [21]: > 20 µM
Activity (SK-OV-3 [22]): Active
Activity (SK-OV-3 [23]): Active
Activity (SK-OV-3 [24]): Active
Activity [25]: 0.055 µmol/L
viability at 2 µM (SK-OV-3 [26]): 85.1%
IC50 [27]: > 20 µM
inhibition [28]: Active
Kd [29]: 7.43 µM
Kd [30]: 0.686 µM
Activity (SK-OV-3 [31]): Active
IC50 (ES-2): 3.44 µM
IC50 (A2780): 3.44 µM
IC50 (OVCAR-3): 2.69 µM
Activity (SK-OV-3 [32]): 4.5%
Activity (SK-OV-3 [33]): Active
Activity [34]: 0.095 µmol/L
Kd [35]: 17.5 µM
Activity (SK-OV-3 [36]): 5.21%
IC50 [37]: 1.94 µM
Kd [38]: 0.419 µM
Activity (SK-OV-3 [39]): Active
Activity (SK-OV-3 [40]): Active
Activity (SK-OV-3 [41]): Active
Activity (SK-OV-3 [42]): 6.15%
inhibition [43]: Active
IC50 (SW626): 8.47 µM
IC50 [44]: > 20 µM
Activity [45]: 0.054 µmol/L
Activity [46]: 0.072 µmol/L
Activity (SK-OV-3 [47]): 8.84%
